Reference: BindingDB's records for doi:10.1021/acschembio.7b00385 (Novartis Pharma, 2017)

Tests used:
Assay in all cases: Liquid growth assay
Conditions in all cases: 30 °C
[1] = molecular target: Actin [R335K] (Saccharomyces cerevisiae (strain ATCC 204508 / S288c), UniProt P60010, R335K)
Experimental: (§1) Saturated ACT1 wild type (WT) as well as engineered ACT1 R183K (R183K) and ACT1 R335K (R335K) cultures were adjusted to 10 OD600 and 3 uL of serial 1:3 dilutions spotted on YPD agar supplemented with indicated concentrations of Chivosazole F. Growth was scored after 3 days incubation at 30 °C.

[2] = molecular target: Actin (Saccharomyces cerevisiae (strain ATCC 204508 / S288c), UniProt P60010)
Experimental: as §1

[3] = molecular target: Actin [R183K] (Saccharomyces cerevisiae (strain ATCC 204508 / S288c), UniProt P60010, R183K)
Experimental: as §1

Row | Structure (SMILES) | IC50 [1] | IC50 [2] | IC50 [3]
1 | C/C1=C\[C@@H](C)[C@@H](C)OC(=O)C[C@H](c2ccc(O)cc2)NC(=O)[C@@H](Cc2c[nH]c3ccccc23)N(C)C(=O)[C@H](C)NC(=O)[C@@H](C)C1 [CHEBI:84382] | 15100 nM | 16700 nM | 11900 nM
2 | C/C1=C/C(=O)O[C@@H]2C[C@@H](CC[C@H](C)/C=C\C=C\CC1)O[C@@](O)([C@@H]1CSC(=O)N1)C2 [LAT-A] | 40 nM | 70 nM | 110 nM
3 | COC1CC(O)/C=C/C=C/C=C\C(C)C(C(C)C(O)CC(C)O)OC(=O)\C=C/C=C/C=C\C(C)=C\C(C)C(O)/C=C\C=C\c2coc(n2)C1C (centres undefined) [SCHEMBL1889389] | 270 nM | 140 nM | 380 nM
